Measured values as given in article PMC7554048, “FBI-1 enhanced the resistance of triple-negative breast cancer cells to chemotherapeutic agents via the miR-30c/PXR axis” (Cell Death & Disease, 2020).
Read-outs that look alike come from different tables or passages of the source.

Assays:
TNBC PDC No. 3 = assay: In vivo antitumor effect of olaparib on subcutaneous TNBC tumors; details: nude mice, oral administration once every two days, 4–5 weeks
Description: Female nude mice, 4–6 weeks old, were purchased from Beijing Si-Bei-Fu Corporation, China. The animal experiments were approved by the Institutional Animal Care and Use Committee of the Chinese PLA General Hospital, China. All animal experiments (n = 10 for each group; animals were randomly divided into the groups) were performed according to the UK Animals (Scientific Procedures) Act, 1986, and associated guidelines. TNBC cells transfected with plasmids were treated with olaparib via oral administration once every two days. After 4–5 weeks’ treatment, the tumor tissues of the mice were harvested. The tumor volumes or tumor weights were determined following the methods described by Jia et al.[37]. The inhibition rates of olaparib were calculated by the tumor volumes or tumor weights.

[1] = Olaparib sustained in cultured TNBC cells, LC-MS/MS (half-life); type: in vitro ADME, human; details: human
Description: (§1) TNBC cells transfected with plasmids were used for the pharmacokinetic experiments to examine the amount of olaparib sustained in the cells. For the cell-based experiments, cells were treated with 1 μmol/L concentration of olaparib for 12 h[33]. Then, cells were harvested at indicated time-points. For the animal experiments, TNBC cells were injected into the subcutaneous position to form subcutaneous tumor tissues. After 2–3 weeks’ growth, when the tumor volumes reached 1500–2000 mm^3, the solution of olaparib was injected into the subcutaneous tumors. Then, the tumor tissues were harvested at indicated times[34],[35]. The olaparib in cells or tumor tissues was extracted by acetonitrile (ACN), and the amount of olaparib sustained in cells or tumor tissues at each time point was determined by liquid chromatography–mass spectrometry/mass spectrometry (LC-MS/MS), following the methods established by Krens et al.[36]. The sustaining rates of olaparib were calculated as (the amount of olaparib at each time)/(the amount of olaparib at 0-time) × 100%. The sustaining curves or the half-time life (t1/2) of olaparib was obtained by the sustained rates of olaparib.

[2] = Olaparib sustained in subcutaneous TNBC tumors after intratumoral injection, LC-MS/MS (half-life); type: in vivo, nude mice; details: nude, mouse, subcutaneous tumor tissue, other: injected into the subcutaneous tumors (intratumoral), read-out: Half life values of olaparib (t1/2) In subcutaneous tumors (converted)
Description: as §1

PDC No. 7 = assay: Cell-survival SRB assay; type: cell-based; details: Homo sapiens, 48 h, read-out: IC50 values of olparib
Description: (§2) The TNBC cells were treated with the indicated concentration of agents (10, 3, 1, 0.3, 0.1, 0.03, or 0.01 μmol/L for olaparib) for 48 h. Then, cells were analyzed by the Sulforhodamine B (SRB) assay, following the methods provided by and Li et al.[23] and Guan et al.[24]. The relative survival cells were determined by the O.D. values (optical density values) at 510 nm. […] The IC50 values of agents were calculated from the inhibition rates[23],[24]. The colony formation experiments were performed following the method desicripted by Fang et al.[5]. TNBC cells were transfected with the plasmids and treated with solvent control or the olaparib. The cells were analyzed by the colony-formation.

PDC No. 2 = assay: Cell-survival SRB assay; type: cell-based; details: Homo sapiens, 48 h, read-out: IC50 values of olparib
Description: as §2

PDC No. 6 = assay: Cell-survival SRB assay; type: cell-based; details: Homo sapiens, 48 h, read-out: IC50 values of olparib
Description: as §2

MDA-MB-436 = assay: Cell-survival SRB assay; type: cell-based; details: Homo sapiens, MDA-MB-436, 48 h, read-out: The IC50 values of olaparib
Description: as §2

PDC No. 9 = assay: Cell-survival SRB assay; type: cell-based; details: Homo sapiens, 48 h, read-out: IC50 values of olparib
Description: as §2

PDC No. 3 = assay: Cell-survival SRB assay; type: cell-based; details: Homo sapiens, 48 h, read-out: IC50 values of olparib
Description: as §2

HCC-1937 = assay: Cell-survival SRB assay; type: cell-based; details: Homo sapiens, HCC1937, 48 h, read-out: The IC50 values of olaparib
Description: as §2

- half-life at 1 μmol/L ([1]; HCC-1937, FBI-1 + miR-30c, read-out: half life values of olaparib (t1/2) (converted)): 3440 ± 535 min
- half-life at 1 μmol/L ([1]; HCC-1937 TNBC cells, HCC-1937, FBI-1, read-out: half life values of olaparib (t1/2) (converted)): 566 ± 34.2 min
- half-life at 1 μmol/L ([1]; HCC-1937 TNBC cells, HCC-1937, control, read-out: half life values of olaparib (t1/2) (converted)): 1870 ± 280 min
- half-life at 1 μmol/L ([1]; HCC-1937 TNBC cells, HCC-1937, miR-30c + PXR^Mut, read-out: half life values of olaparib (t1/2) (converted)): 513 ± 18 min
- half-life at 1 μmol/L ([1]; HCC-1937 TNBC cells, HCC-1937, miR-30c, read-out: half life values of olaparib (t1/2) (converted)): 4100 ± 806 min
- half-life at 1 μmol/L ([1]; HCC-1937 TNBC cells, HCC-1937, siFBI-1 + miR-30c inhibitor, read-out: half life values of olaparib (t1/2) (converted)): 1110 ± 245 min
- half-life at 1 μmol/L ([1]; HCC-1937 TNBC cells, HCC-1937, siFBI-1, read-out: half life values of olaparib (t1/2) (converted)): 3010 ± 337 min
- half-life at 1 μmol/L ([1]; MDA-MB-436, FBI-1 + miR-30c, read-out: half life values of olaparib (t1/2) (converted)): 2650 ± 345 min
- half-life at 1 μmol/L ([1]; MDA-MB-436 TNBC cells, MDA-MB-436, FBI-1, read-out: half life values of olaparib (t1/2) (converted)): 802 ± 165 min
- half-life at 1 μmol/L ([1]; MDA-MB-436 TNBC cells, MDA-MB-436, control, read-out: half life values of olaparib (t1/2) (converted)): 1730 ± 259 min
- half-life at 1 μmol/L ([1]; MDA-MB-436 TNBC cells, MDA-MB-436, miR-30c + PXR^Mut, read-out: half life values of olaparib (t1/2) (converted)): 669 ± 260 min
- half-life at 1 μmol/L ([1]; MDA-MB-436 TNBC cells, MDA-MB-436, miR-30c, read-out: half life values of olaparib (t1/2) (converted)): 3080 ± 428 min
- half-life at 1 μmol/L ([1]; MDA-MB-436 TNBC cells, MDA-MB-436, siFBI-1 + miR-30c inhibitor, read-out: half life values of olaparib (t1/2) (converted)): 1220 ± 329 min
- half-life at 1 μmol/L ([1]; MDA-MB-436 TNBC cells, MDA-MB-436, siFBI-1, read-out: half life values of olaparib (t1/2) (converted)): 2840 ± 445 min
- half-life at 1 μmol/L ([1]; TNBC cells PDC No. 2, PDC No. 2, Control, read-out: Half life values of olaparib (t1/2) In cultured cells (converted)): 1300 ± 413 min
- half-life at 1 μmol/L ([1]; TNBC cells PDC No. 2, PDC No. 2, siFBI-1, read-out: Half life values of olaparib (t1/2) In cultured cells (converted)): 3650 ± 291 min
- half-life at 1 μmol/L ([1]; TNBC cells PDC No. 3, PDC No. 3, Control (Table 3), read-out: Half life values of olaparib (t1/2) In cultured cells (converted)): 1500 ± 469 min
- half-life at 1 μmol/L ([1]; TNBC cells PDC No. 3, PDC No. 3, Control (Table 4), read-out: Half-life values of olparib (t1/2) (converted)): 1640 ± 258 min
- half-life at 1 μmol/L ([1]; TNBC cells PDC No. 3, PDC No. 3, FBI-1 (Table 3), read-out: Half life values of olaparib (t1/2) In cultured cells (converted)): 699 ± 233 min
- half-life at 1 μmol/L ([1]; TNBC cells PDC No. 3, PDC No. 3, FBI-1 (Table 4), read-out: Half-life values of olparib (t1/2) (converted)): 636 ± 272 min
- half-life at 1 μmol/L ([1]; TNBC cells PDC No. 3, PDC No. 3, siFBI-1, read-out: Half life values of olaparib (t1/2) In cultured cells (converted)): 3560 ± 535 min
- half-life at 1 μmol/L ([1]; TNBC cells PDC No. 3, with ketoconazole (concentration not stated), PDC No. 3, FBI-1 + ketoconazole, read-out: Half-life values of olparib (t1/2) (converted)): 1570 ± 231 min
- half-life at 1 μmol/L ([1]; TNBC cells PDC No. 6, PDC No. 6, Control, read-out: Half life values of olaparib (t1/2) In cultured cells (converted)): 1170 ± 350 min
- half-life at 1 μmol/L ([1]; TNBC cells PDC No. 6, PDC No. 6, siFBI-1, read-out: Half life values of olaparib (t1/2) In cultured cells (converted)): 3080 ± 691 min
- half-life at 1 μmol/L ([1]; TNBC cells PDC No. 7, PDC No. 7, Control, read-out: Half life values of olaparib (t1/2) In cultured cells (converted)): 1260 ± 301 min
- half-life at 1 μmol/L ([1]; TNBC cells PDC No. 7, PDC No. 7, siFBI-1, read-out: Half life values of olaparib (t1/2) In cultured cells (converted)): 3330 ± 598 min
- half-life at 1 μmol/L ([1]; TNBC cells PDC No. 9, PDC No. 9, Control (Table 3), read-out: Half life values of olaparib (t1/2) In cultured cells (converted)): 2020 ± 330 min
- half-life at 1 μmol/L ([1]; TNBC cells PDC No. 9, PDC No. 9, Control (Table 4), read-out: Half-life values of olparib (t1/2) (converted)): 2180 ± 398 min
- half-life at 1 μmol/L ([1]; TNBC cells PDC No. 9, PDC No. 9, FBI-1 (Table 3), read-out: Half life values of olaparib (t1/2) In cultured cells (converted)): 1090 ± 266 min
- half-life at 1 μmol/L ([1]; TNBC cells PDC No. 9, PDC No. 9, FBI-1 (Table 4), read-out: Half-life values of olparib (t1/2) (converted)): 892 ± 173 min
- half-life at 1 μmol/L ([1]; TNBC cells PDC No. 9, with ketoconazole (concentration not stated), PDC No. 9, FBI-1 + ketoconazole, read-out: Half-life values of olparib (t1/2) (converted)): 2260 ± 333 min
- half-life ([2]; PDC No. 2, Control): 1810 ± 409 min
- half-life ([2]; PDC No. 2, siFBI-1): 3220 ± 440 min
- half-life ([2]; PDC No. 3, Control): 1930 ± 553 min
- half-life ([2]; PDC No. 3, FBI-1): 1070 ± 519 min
- half-life ([2]; PDC No. 3, siFBI-1): 3760 ± 406 min
- half-life ([2]; PDC No. 6, Control): 1720 ± 590 min
- half-life ([2]; PDC No. 6, siFBI-1): 2620 ± 463 min
- half-life ([2]; PDC No. 7, Control): 1880 ± 597 min
- half-life ([2]; PDC No. 7, siFBI-1): 3500 ± 544 min
- half-life ([2]; PDC No. 9, Control): 2160 ± 500 min
- half-life ([2]; PDC No. 9, FBI-1): 1360 ± 262 min
SMILES: O=C(c1cc(Cc2n[nH]c(=O)c3ccccc23)ccc1F)N1CCN(C(=O)C2CC2)CC1 [olaparib]
- subcutaneous growth of TNBC cells (TNBC PDC No. 3): inhibited the subcutaneous growth of TNBC cells
- IC50 (PDC No. 7; PDC No. 7, control): 2040 ± 770 nM
- IC50 (PDC No. 7; PDC No. 7, siFBI-1, 48 h): 330 ± 100 nM
- IC50 (PDC No. 2; PDC No. 2, control): 1320 ± 250 nM
- IC50 (PDC No. 2; PDC No. 2, siFBI-1, 48 h): 220 ± 20 nM
- IC50 (PDC No. 6; PDC No. 6, control): 1740 ± 820 nM
- IC50 (PDC No. 6; PDC No. 6, siFBI-1, 48 h): 250 ± 40 nM
- IC50 (MDA-MB-436; MDA-MB-436, FBI-1 + miR-30c, 48 h): 210 ± 20 nM
- IC50 (MDA-MB-436; MDA-MB-436, FBI-1, 48 h): 2460 ± 790 nM
- IC50 (MDA-MB-436; MDA-MB-436, control, 48 h): 790 ± 280 nM
- IC50 (MDA-MB-436; MDA-MB-436, miR-30c + PXR^Mut, 48 h): 2750 ± 400 nM
- IC50 (MDA-MB-436; MDA-MB-436, miR-30c, 48 h): 100 ± 30 nM
- IC50 (MDA-MB-436; MDA-MB-436, siFBI-1 + miR-30c inhibitor, 48 h): 1820 ± 310 nM
- IC50 (MDA-MB-436; MDA-MB-436, siFBI-1, 48 h): 140 ± 10 nM
- IC50 (PDC No. 9; PDC No. 9, FBI-1, 48 h): 9880 ± 650 nM
- IC50 (PDC No. 9; PDC No. 9, control): 850 ± 330 nM
- IC50 (PDC No. 9; PDC No. 9, ketoconazole + FBI-1, 48 h): 1640 ± 520 nM
- IC50 (PDC No. 3; PDC No. 3, FBI-1, 48 h): 8750 ± 1000 nM
- IC50 (PDC No. 3; PDC No. 3, control): 940 ± 100 nM
- IC50 (PDC No. 3; PDC No. 3, ketoconazole + FBI-1, 48 h): 630 ± 110 nM
- IC50 (PDC No. 3; PDC No. 3, siFBI-1, 48 h): 100 ± 50 nM
- IC50 (HCC-1937; HCC-1937, FBI-1 + miR-30c, 48 h): 240 ± 40 nM
- IC50 (HCC-1937; HCC-1937, FBI-1, 48 h): 3700 ± 380 nM
- IC50 (HCC-1937; HCC-1937, control, 48 h): 900 ± 330 nM
- IC50 (HCC-1937; HCC-1937, miR-30c + PXR^Mut, 48 h): 4900 ± 820 nM
- IC50 (HCC-1937; HCC-1937, miR-30c, 48 h): 100 ± 50 nM
- IC50 (HCC-1937; HCC-1937, siFBI-1 + miR-30c inhibitor, 48 h): 2210 ± 510 nM
- IC50 (HCC-1937; HCC-1937, siFBI-1, 48 h): 130 ± 80 nM
